Results: PubChem BioAssay (NCI)
“And” between values parts separate entries of the source, which are not always exact repeats. Equal entries are not always repeated.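 Where inhibition never reached the appropriate level, the endpoint shown equals the highest concentration tested. Otherwise, values were interpolated linearly from a five-concentration, 48-hour dose response in 96-well plates. GI50: concentration for 50% inhibition of growth. TGI: concentration producing complete growth inhibition.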

What was measured:
Assay in all cases: NCI anticancer screen, dose series, 48 h
MOLT-4 leukemia = test system: MOLT-4 leukemia
OVCAR-3 ovarian = test system: OVCAR-3 ovarian
OVCAR-8 ovarian = test system: OVCAR-8 ovarian
U251 CNS = test system: U251 CNS
HCT-116 colon = test system: HCT-116 colon
M14 melanoma = test system: M14 melanoma
HOP-62 NSCLC = test system: HOP-62 NSCLC
HT29 colon = test system: HT29 colon
TK-10 renal = test system: TK-10 renal
CCRF-CEM leukemia = test system: CCRF-CEM leukemia

Compound	TGI (MOLT-4 leukemia)	TGI (OVCAR-3 ovarian)	TGI (OVCAR-8 ovarian)	TGI (U251 CNS)	TGI (HCT-116 colon)	TGI (M14 melanoma)	TGI (HOP-62 NSCLC)	TGI (HT29 colon)	TGI (TK-10 renal)	TGI (CCRF-CEM leukemia)	GI50 (MOLT-4 leukemia)	GI50 (OVCAR-3 ovarian)	GI50 (OVCAR-8 ovarian)	GI50 (U251 CNS)	GI50 (HCT-116 colon)	GI50 (M14 melanoma)	GI50 (HOP-62 NSCLC)	GI50 (HT29 colon)	GI50 (TK-10 renal)	GI50 (CCRF-CEM leukemia)
O=c1c2ccccc2n2n1CC(O)C2 (stereo not given)	> 100 µM	> 100 µM	> 100 µM	> 100 µM	> 100 µM	> 100 µM	> 100 µM	> 100 µM	> 100 µM	> 100 µM	–	–	–	–	–	–	–	–	–	–
C[C@@H]1CC[C@@H]2[C@@H]1[C@H](OC(=O)/C=C/c1ccccc1)[C@]1(C3CCCCC3)C[C@@H](NC(=O)CO)[C@@]2(C)O1	39.3 µM	34.2 µM	32 µM	34 µM	34.2 µM	35.6 µM	33.5 µM	35.5 µM	35.3 µM	45.2 µM	18.5 µM	17.3 µM	16.3 µM	18.6 µM	19.5 µM	18.6 µM	17.4 µM	18.9 µM	18.4 µM	23.2 µM
CCN1C(NN)=NS(=O)(=O)c2ccccc21	> 100 µM	> 100 µM	> 100 µM	> 100 µM	> 100 µM	> 100 µM	> 100 µM	> 100 µM	> 100 µM	> 100 µM	–	–	–	–	–	–	–	–	–	–
Cc1cnc(/C=N\NC(N)=S)c2cccc(N)c12	> 100 µM	> 100 µM	> 100 µM	> 100 µM	> 100 µM and 28.3 µM	4.41 µM and 1.75 µM	> 100 µM	> 100 µM	> 100 µM	> 24 µM	1.5 µM	3.03 µM	2.66 µM	2 µM	4.41 µM	1.83 µM and 0.384 µM	2.89 µM	5.11 µM	6.89 µM	1.82 µM
CCOC(=O)C1=C(O)CSC1=Nc1ccccc1	> 100 µM	> 100 µM	> 100 µM	–	> 100 µM	> 100 µM	> 100 µM	> 100 µM	> 100 µM	–	–	–	–	–	–	–	–	–	–	–
CC(C)(C#N)c1cc(F)cc(C(=O)Nc2cc(Nc3ncccc3-c3ncnc4nc[nH]c34)ccc2F)c1	> 10 µM	> 10 µM	> 10 µM	> 10 µM	> 10 µM	1.02 µM	> 10 µM	> 10 µM	> 10 µM	> 10 µM	4.27 µM	5.5 µM	3.16 µM	3.55 µM	0.212 µM	0.0682 µM	0.475 µM	0.151 µM	> 10 µM	3.91 µM
O=C1c2ccccc2C(=Cc2ccccc2)c2ccccc21	> 100 µM	9.11 µM	5.26 µM	9.23 µM	5.13 µM	7.86 µM	10.2 µM	4.33 µM	10.1 µM	29 µM	4.74 µM	2.56 µM	2.19 µM	2.97 µM	1.89 µM	2.21 µM	2.62 µM	1.17 µM	3.03 µM	2.77 µM
O=C1N(c2ccccc2)C(=O)C2(SC=NN2Cc2ccccc2)N1c1ccccc1 (stereo not given)	> 100 µM	> 100 µM	> 100 µM	> 100 µM	> 100 µM	> 100 µM	> 100 µM	> 100 µM	> 100 µM	> 100 µM	–	–	–	–	–	–	–	–	–	–
O=S(=O)(O)c1ccc(-c2nnc(-c3ccccn3)nc2-c2ccc(S(=O)(=O)O)o2)o1	> 100 µM	> 100 µM	> 100 µM	> 100 µM	> 100 µM	> 100 µM	> 100 µM	> 100 µM	–	–	–	–	–	–	–	–	–	–	–	–
CCOC(=O)C1=C(C)NC2SC(=O)/C(=C\c3ccccc3O)N2C1c1ccccc1 (stereo not given)	–	49.9 µM	61.6 µM	49.6 µM	63.6 µM	65.5 µM	> 100 µM	41.4 µM	49 µM	75.2 µM	–	20.4 µM	24.6 µM	21.5 µM	23.6 µM	24 µM	31.4 µM	19.5 µM	21.3 µM	10.2 µM
COc1ccc(C(=O)C(C(=O)C(=O)Nc2ccc(Cl)c(Cl)c2)c2ccc(OC)cc2)cc1 (stereo not given)	> 100 µM	> 100 µM	> 100 µM	> 100 µM	> 100 µM	> 100 µM	> 100 µM	> 100 µM	> 100 µM	–	–	–	–	–	–	–	–	–	–	–
Cc1cc(C2=NNC(=O)Cc3cc4c(cc32)OCCO4)cc(C)c1N	> 100 µM	5.6 µM	> 100 µM	> 100 µM	> 100 µM	> 100 µM	> 100 µM	> 100 µM	> 100 µM	–	3.97 µM	0.892 µM	4.08 µM	3.22 µM	2.35 µM	2.17 µM	2.72 µM	0.746 µM	8.96 µM	–
O=C(Nc1ccc(CN2CCOCC2)cc1)c1[nH]ncc1Nc1ncnc2sccc12	–	2.81 µM	22.4 µM	13.2 µM	12.3 µM	13 µM	41.6 µM	> 100 µM	> 100 µM	27.7 µM	–	0.29 µM	0.522 µM	0.281 µM	0.217 µM	0.56 µM	0.669 µM	0.686 µM	1.64 µM	0.337 µM
CC1CCN(CCCCCOc2ccc3oc4cc(Cl)ccc4c(=O)c3c2)CC1	10.3 µM	14.2 µM	16 µM	12.4 µM	7.86 µM	2.63 µM	–	6.2 µM	14.8 µM	14.2 µM	2.87 µM	7 µM	7.95 µM	5.69 µM	2.42 µM	1.15 µM	–	1.72 µM	7.46 µM	5.76 µM
C/C1=C/C2=CC(C)C[C@@H]2C(=O)[C@]2(C)C(=O)CC(C)(C)[C@H]2CC1=O (stereo not given in full)	> 50 µM	> 50 µM	> 50 µM	> 50 µM	> 50 µM	> 50 µM	–	> 50 µM	> 50 µM	> 50 µM	–	–	–	–	–	–	–	–	–	–
CN[C@@H](C)[C@@H](N)c1ccccc1	> 100 µM	> 100 µM	> 100 µM	> 100 µM	> 100 µM	> 100 µM	–	> 100 µM	> 100 µM	> 100 µM	–	–	–	–	–	–	–	–	–	–
